Tests used:
Type in all cases: in vivo, rat
[1] = tested on: control, uninjured animals; test: Mechanical withdrawal threshold in control, uninjured animals after intrathecal injection; conditions: uninjured rats
Text: (§1) An automated instrument was used for assessing touch sensitivity. An animal was placed inside a plastic box on a raised plasticized wire-mesh surface. The animal is free to move within the confines of the box. The animal acclimates to the apparatus, and a touch stimulator unit was then slid under the animal to position a stainless steel filament (0.5 mm diameter) under the plantar surface of a paw. A button press causes the filament to move perpendicularly to the tested paw. The filament exerts an increasing force, starting below the threshold of detection and increases until the animal withdraws the paw. The force applied to the filament that results in paw withdrawal was recorded.
(§2) For both behaviors, the ipsilateral, injured, paw was tested four times to obtain an average value. Each test is separated by 5 min. Persons performing behavioral tests are blinded to treatment whenever possible.
(§3) The animals were anesthetized with isoflurane and securely held in the sternal position. A 25 μl Hamilton-brand microsyringe was fitted with a 25-gauge, 1-inch hypodermic needle and the needle inserted between the dorsal aspects of L5 and L6 perpendicular to the vertebral column. This site corresponds to the region where the spinal cord ends and the cauda equina begins and was chosen to reduce the possibility of spinal damage. […]

calcineurin = test: Calcineurin activity in the PSD after intrathecal injection (commercial kit); conditions: control, uninjured rats; 90 minutes after intrathecal injection; vs saline; FIG. 16
Description: (§4) Animals were anesthetized with isoflurane and while still deeply anesthetized were euthanized with an intracardiac injection of super-saturated potassium chloride (>350 mg/ml). A laminectomy was used to rapidly (<2 min) expose the lumbar spinal cord at L5. About 1 cm of the cord was excised and placed into a Petri dish containing dry-ice-cold saline or homogenizing buffer. Subsequently, the cord was cut under a dissecting microscope into dorsal and ventral halves, and the dorsal half further divided into ipsilateral and contralateral quadrants. All tissues were immediately placed into dry-ice cooled collecting tubes, and stored at −80° C. until used.
(§5) Calcineurin activity was obtained with a commercial kit (Enzo Life Sciences, Plymouth Meeting, Pa.) and expressed as nmol of phosphate released/min/mg of protein. Immunoblots were performed as described previously (Miletic et al., 2002). Calcineurin isoform […] (Millipore, Billerica, Mass.) was used at a dilution of 1:1000. Developed membranes were stripped and re-probed with beta III tubulin (1:1000; Promega, Madison, Wis.) as the loading control. Protein levels were estimated with the BioSpectrum 500 Image Analysis System (UVP, Upland, Calif.). The calcineurin Aα content within a gel was expressed over the beta III tubulin content, and then the content in sham-operated or CCI animals was normalized to those in control animals. […]

[2] = tested on: control, uninjured animals; test: Thermal withdrawal latency in control, uninjured animals after intrathecal injection; conditions: uninjured rats
Description: (§6) Thermal sensitivity is assessed using the hindpaw withdrawal test to a thermal noxious stimulus. An animal was placed inside a plastic box on a raised glass surface. The animal is free to move within the confines of the box. A movable, focused beam of radiant heat was placed under the glass on which the animal is resting a paw. The glass is progressively heated until a noxious threshold was reached to elicit paw withdrawal. As soon as the animal moved its paw, a photocell in the metal enclosure containing the heat source turned off the light. The latency (in sec) for the animal to withdraw its paw was recorded by a digital automatic display.
as §2
as §3, with “damage. The needle was advanced until a slight but noticeable movement of the tail or the leg was observed.” for “damage.”

[3] = tested on: CCI animals (chronic constriction injury of the sciatic nerve); test: Thermal withdrawal latency in CCI animals after intrathecal injection; conditions: for analgesia, thermal latency threshold: group data, 100 units intrathecal, FIG. 13
Description: as §6, §2
(§7) Animals were anesthetized with isoflurane and prepared for surgery by clipping the hair over the mid-thigh area of the left hind leg, scrubbing the clipped area with povidone iodine and alcohol (repeated three times), and lubricating the eyes with sterile ophthalmic ointment. The sciatic nerve was exposed at mid-thigh level by blunt dissection through the biceps femoris muscles. The nerve was freed of adherent tissue, and four ligatures (4.0 chromic gut) were spaced about 1 mm apart. Care was taken to tie the ligatures so that the nerve trunk is just barely constricted when viewed with a dissecting microscope at 40×. […] The incision was closed in layers using chromic gut sutures for muscle and silk sutures for skin.
(§8) A stock solution of calcineurin enzyme at a concentration of 100 units/microliter is commercially available (Enzo Life Sciences, Plymouth Meeting, Pa., Cat. No. BML-SE163-5000). The stock solution was diluted 1:10 with saline (1 part of calcineurin stock solution+9 parts of saline) to make a diluted calcineurin solution of 10 units/microliter. Ten microliters of the diluted calcineurin solution was then injected intrathecally. In other words the dose is 100 units of calcineurin per animal. Animal weights were approximately 200 to 250 g. This equates to a dosage of roughly 3 μg/kg body weight (in the rat).
(§9) The animals were anesthetized with isoflurane and securely held in the sternal position. A 25 μl Hamilton-brand microsyringe was fitted with a 25-gauge, 1-inch hypodermic needle and the needle inserted between the dorsal aspects of L5 and L6 perpendicular to the vertebral column. This site corresponds to the region where the spinal cord ends and the cauda equina begins and was chosen to reduce the possibility of spinal damage. The needle was advanced until a slight but noticeable movement of the tail or the leg was observed. […] Drugs were injected in a volume of 10 μl and the syringe was held in place for a few seconds before being progressively and slowly withdrawn to avoid drug outflow. The rat then recovers from the anesthesia.

[4] = tested on: CCI animals (chronic constriction injury of the sciatic nerve); test: Mechanical withdrawal threshold in CCI animals after intrathecal injection; conditions: for analgesia, mechanical stimulus threshold: group data, FIG. 12
Text: as §1, §2, §7, §8, §9

calcineurin Aα isoform = test: Immunoblot of calcineurin Aα content in the post-synaptic density of spinal dorsal horn neurons after intrathecal injection; conditions: CCI rats; 90 min after single intrathecal injection of 100 units; vs saline; FIG. 7
Description: as §4, §5

**Q.** Which mechanical withdrawal thresholds ([1]; 90 minutes after intrathecal injection, vs saline, FIG. 14) does the source give for FK-506 [reference compound] here?
**A.** significant decrease

**Q.** And the “calcineurin activity in PSD” value (calcineurin)?
**A.** significant decrease

**Q.** What about the thermal latencies ([2]; 90 minutes after intrathecal injection, vs saline, FIG. 15) of the same substance?
**A.** significant decrease

**Q.** With calcineurin as the substance, how does the thermal hypersensitivity ([3]; CCI rats 7 days post-ligation, 100 units in 10 μl intrathecal, retested 90 min after injection, FIG. 6) read?
**A.** significantly attenuated

**Q.** What about the “analgesia, thermal latency threshold” value ([3]; CCI rats, 2-day post-injection group) of the same substance?
**A.** provided analgesia

**Q.** What about the “analgesia, thermal latency threshold” value ([3]; CCI rats, 4-day post-injection group) of the same substance?
**A.** provided analgesia

**Q.** What about the “analgesia, thermal latency threshold” value ([3]; CCI rats, 6-day post-injection group) of the same substance?
**A.** disappeared

**Q.** And the thermal hypersensitivity ([3]; CCI rats, single intrathecal injection 100 units, 2 days after injection, continuous, FIG. 9)?
**A.** significantly attenuated

**Q.** What about the thermal hypersensitivity ([3]; CCI rats, single intrathecal injection 100 units, 4 days after injection, continuous, FIG. 9) of the same substance?
**A.** continued to exhibit analgesia

**Q.** What about the thermal hypersensitivity ([3]; CCI rats, single intrathecal injection 100 units, 6 days after injection, continuous, FIG. 9) of the same substance?
**A.** exhibited once again mechanical and thermal hypersensitivity

**Q.** What about the mechanical hypersensitivity ([4]; CCI rats 7 days post-ligation, 100 units in 10 μl intrathecal, retested 90 min after injection, FIG. 5) of the same substance?
**A.** significantly attenuated

**Q.** What about the “duration of pain relief from a single intrathecal injection” value ([4]; CCI rats, 100 units intrathecal, mechanical and thermal tests) of the same substance?
**A.** ≥ 4 days

**Q.** What about the “analgesia, mechanical stimulus threshold” value ([4]; CCI rats, 2-day post-injection group, 100 units intrathecal) of the same substance?
**A.** provided analgesia

**Q.** And the “analgesia, mechanical stimulus threshold” value ([4]; CCI rats, 4-day post-injection group, 100 units intrathecal)?
**A.** provided analgesia

**Q.** What about the “analgesia, mechanical stimulus threshold” value ([4]; CCI rats, 6-day post-injection group, 100 units intrathecal) of the same substance?
**A.** disappeared

**Q.** What about the mechanical hypersensitivity ([4]; CCI rats, single intrathecal injection 100 units, 2 days after injection, same animals retested (continuous), FIG. 8) of the same substance?
**A.** significantly attenuated

**Q.** And the mechanical hypersensitivity ([4]; CCI rats, single intrathecal injection 100 units, 4 days after injection, continuous, FIG. 8)?
**A.** continued to exhibit analgesia

**Q.** And the mechanical hypersensitivity ([4]; CCI rats, single intrathecal injection 100 units, 6 days after injection, continuous, FIG. 8)?
**A.** exhibited once again mechanical and thermal hypersensitivity

**Q.** And the “calcineurin Act in ipsilateral PSD” value (calcineurin Aα isoform)?
**A.** significantly more

**Q.** What about the “behavior, mechanical stimulation” value ([1]; single intrathecal injection, FIG. 10) of the same substance?
**A.** not modified

**Q.** What about the “behavior, thermal stimulation” value ([2]; single intrathecal injection, FIG. 11) of the same substance?
**A.** not modified

Source: patent US20120321610A1, “METHOD TO INHIBIT NEUROPATHIC PAIN BY INTRATHECAL INJECTION OF PROTEIN PHOSPHATASES” (priority 2011, published 2012)
